Experimental data taken from paper PMC3718205 (Biochemical and biophysical research communications, 2012).
Where a SMILES comes first, the peptide text is derived from it. The star is where a group is joined. X1 = C/C(=C\C*)CC/C=C(\C)COCc1ccc(C(=O)c2ccccc2)cc1; X3 = C/C(=C\C*)CC/C=C(\C)COCc1cccc(C(=O)c2ccccc2)c1; Biotin = O=C1N[C@H]2[C@H](CS[C@H]2CCCCC(=O)*)N1; X2 = C/C(=C\C*)COCc1cccc(C(=O)c2ccccc2)c1; X4 = C/C(=C\C*)COCc1ccc(C(=O)c2ccccc2)cc1; PEG4 = NCCOCCOCCOCCOCCC(=O)O

Columns and labels:
[1] = test system: yeast Icmt; settings: cited from earlier work
[2] = test system: human Icmt (hIcmt); settings: cited from earlier work
[3] = biological target: T1, His10myc3N-Ste14p (His-Ste14p) (Saccharomyces cerevisiae, UniProt P32584); experiment: In vitro methyltransferase vapor diffusion assay, substrate kinetics, His-Ste14p; assay type: biochemical, S. cerevisiae; settings: for Vmax: crude yeast membranes expressing His-Ste14p; for Fold lower Km of para- vs meta-substituted benzophenone a-factor analogs: His-Ste14p, vs meta-substituted analogs (7a, 8a)
T1 sequence (P32584 1-239): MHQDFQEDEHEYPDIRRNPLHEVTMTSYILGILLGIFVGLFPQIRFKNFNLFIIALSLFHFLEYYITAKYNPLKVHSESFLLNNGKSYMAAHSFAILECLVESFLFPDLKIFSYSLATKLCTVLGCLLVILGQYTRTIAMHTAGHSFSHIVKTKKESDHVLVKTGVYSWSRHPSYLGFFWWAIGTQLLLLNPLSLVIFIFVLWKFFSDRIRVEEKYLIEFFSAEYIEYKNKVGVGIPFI

[4] = biological target: T1, His10myc3N-Ste14p (His-Ste14p); settings: read-out: Km(app); AFC positive control; ± S.D.; cited from earlier work
[5] = biological target: T2, His10myc3N-hIcmt (His-hIcmt) (Homo sapiens, UniProt O60725); settings: AFC; ± S.D.; cited from earlier work
[6] = biological target: T2, His10myc3N-hIcmt (His-hIcmt); experiment: Inhibition of His-hIcmt methyltransferase activity; assay type: biochemical
[7] = test system: His-Icmt; experiment: Competition of photolabeling by 8b with AFC, His-hIcmt; assay type: binding, human; settings: 8b 200 μM, increasing AFC; data not shown

T2 sequence (O60725 whole entry): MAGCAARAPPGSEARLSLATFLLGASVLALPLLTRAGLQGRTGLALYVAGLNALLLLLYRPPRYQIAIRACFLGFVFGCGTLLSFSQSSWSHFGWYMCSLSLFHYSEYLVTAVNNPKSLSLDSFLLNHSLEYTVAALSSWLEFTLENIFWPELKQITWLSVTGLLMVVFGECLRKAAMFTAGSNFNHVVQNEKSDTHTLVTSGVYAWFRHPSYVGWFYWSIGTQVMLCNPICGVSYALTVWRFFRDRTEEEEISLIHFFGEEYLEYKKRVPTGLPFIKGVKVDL

| SMILES | Substrate of yeast Icmt (in words) [1] | Substrate of human Icmt (in words) [2] | Vmax [3] | Inhibition of His-hIcmt (in words) [6] | other results |
| --- | --- | --- | --- | --- | --- |
| CC(=O)N[C@@H](CSC/C=C(\C)CC/C=C(\C)CC/C=C(\C)CCC=C(C)C)C(=O)O [AGGC, N-acetyl-S-geranylgeranyl-L-cysteine] | substrates for both human and yeast Icmts | substrates for both human and yeast Icmts | – | – | – |
| CC(=O)N[C@@H](CSC/C=C(\C)CC/C=C(\C)CCC=C(C)C)C(=O)O [Compound 1, N-acetyl-S-farnesyl-L-cysteine] | substrates for both human and yeast Icmts | substrates for both human and yeast Icmts | 869 pmol/min/mg | – | Km [4]: 15.9 ± 0.9 µM; Km [5]: 10.3 ± 0.5 µM |
| CC[C@H](C)[C@H](NC(=O)[C@H](Cc1ccc(O)cc1)NC(=O)CCOCCOCCOCCOCCNC(=O)CCCC[C@@H]1SC[C@@H]2NC(=O)N[C@@H]21)C(=O)N[C@H](C(=O)N[C@@H](CCCCN)C(=O)NCC(=O)N[C@H](C(=O)N[C@@H](Cc1ccccc1)C(=O)N[C@@H](Cc1c[nH]c2ccccc12)C(=O)N[C@@H](CC(=O)O)C(=O)N1CCC[C@H]1C(=O)N[C@@H](C)C(=O)N[C@@H](CSC/C=C(\C)COCc1cccc(C(=O)c2ccccc2)c1)C(=O)O)C(C)C)[C@@H](C)CC [Compound 7a, Biotin-Peg4-YIIKGVFWDPAC(C5-meta-Bp)] ({Biotin-PEG4}-YIIKGVFWDPAC(X2)-OH) | – | – | 473 pmol/min/mg | poor inhibitors of His-hIcmt | – |
| CC[C@H](C)[C@H](NC(=O)[C@H](Cc1ccc(O)cc1)NC(=O)CCOCCOCCOCCOCCNC(=O)CCCC[C@@H]1SC[C@@H]2NC(=O)N[C@@H]21)C(=O)N[C@H](C(=O)N[C@@H](CCCCN)C(=O)NCC(=O)N[C@H](C(=O)N[C@@H](Cc1ccccc1)C(=O)N[C@@H](Cc1c[nH]c2ccccc12)C(=O)N[C@@H](CC(=O)O)C(=O)N1CCC[C@H]1C(=O)N[C@@H](C)C(=O)N[C@@H](CSC/C=C(\C)COCc1ccc(C(=O)c2ccccc2)cc1)C(=O)O)C(C)C)[C@@H](C)CC [Compound 7b, Biotin-Peg4-YIIKGVFWDPAC(C5-para-Bp)] ({Biotin-PEG4}-YIIKGVFWDPAC(X4)-OH) | – | – | – | poor inhibitors of His-hIcmt | Fold lower Km of para- vs meta-substituted benzophenone a-factor analogs [3]: 2 – 3 times lower |
| CC[C@H](C)[C@H](NC(=O)[C@H](Cc1ccc(O)cc1)NC(=O)CCOCCOCCOCCOCCNC(=O)CCCC[C@@H]1SC[C@@H]2NC(=O)N[C@@H]21)C(=O)N[C@H](C(=O)N[C@@H](CCCCN)C(=O)NCC(=O)N[C@H](C(=O)N[C@@H](Cc1ccccc1)C(=O)N[C@@H](Cc1c[nH]c2ccccc12)C(=O)N[C@@H](CC(=O)O)C(=O)N1CCC[C@H]1C(=O)N[C@@H](C)C(=O)N[C@@H](CSC/C=C(\C)CC/C=C(\C)COCc1cccc(C(=O)c2ccccc2)c1)C(=O)O)C(C)C)[C@@H](C)CC [Compound 8a, Biotin-Peg 4-YIIKGVFWDPAC(C10-meta-Bp)] ({Biotin-PEG4}-YIIKGVFWDPAC(X3)-OH) | – | – | 762 pmol/min/mg | relatively potent | – |
| CC[C@H](C)[C@H](NC(=O)[C@H](Cc1ccc(O)cc1)NC(=O)CCOCCOCCOCCOCCNC(=O)CCCC[C@@H]1SC[C@@H]2NC(=O)N[C@@H]21)C(=O)N[C@H](C(=O)N[C@@H](CCCCN)C(=O)NCC(=O)N[C@H](C(=O)N[C@@H](Cc1ccccc1)C(=O)N[C@@H](Cc1c[nH]c2ccccc12)C(=O)N[C@@H](CC(=O)O)C(=O)N1CCC[C@H]1C(=O)N[C@@H](C)C(=O)N[C@@H](CSC/C=C(\C)CC/C=C(\C)COCc1ccc(C(=O)c2ccccc2)cc1)C(=O)O)C(C)C)[C@@H](C)CC [Compound 8b, Biotin-Peg4-YIIKGVFWDPAC(C10-para-Bp)] ({Biotin-PEG4}-YIIKGVFWDPAC(X1)-OH) | – | – | – | relatively potent | Fold lower Km of para- vs meta-substituted benzophenone a-factor analogs [3]: 2 – 3 times lower; Mode of inhibition (in words) [7]: competitive inhibitor; Photolabeling by 8b in presence of AFC (in words) [7]: decreased with increasing AFC concentration |
| CC(C)=CCCC(C)=CCCC(C)=CCSCCC(=O)O [FTP, farnesyl thiopropionic acid] | substrates for both human and yeast Icmts | substrates for both human and yeast Icmts | – | – | – |
